Among the test systems are HOP-62 NSCLC; HOP-92 NSCLC; LOX IMVI melanoma; M14 melanoma; MOLT-4 leukemia; NCI-H226 lung; RXF 393 renal; SF-539 CNS; SN12C renal; SNB-19 CNS.
Common to all, as to experiment: inhibition of tumour cell growth, NCI panel, 48 h

SMILES strings stand for the structures.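 Exposure lasted 48 hours, with cells grown in 96-well plates and compounds tested at five concentrations. The concentration for 50% growth inhibition is given as GI50. TGI: total growth inhibition.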 Bounds are passed on as bounds.

For the compound `Oc1ccc(Cl)cc1Cc1cc(Cl)ccc1O`, the GI50 is 2.39 µM with HOP-62 NSCLC; 0.801 µM with HOP-92 NSCLC; 2.82 µM in the test with LOX IMVI melanoma; 3.31 µM in the test on M14 melanoma; 2.86 µM in the test with MOLT-4 leukemia; 3.28 µM in the test with NCI-H226 lung. Also, the GI50 was 2.38 µM with RXF 393 renal, 3.8 µM in the test on SF-539 CNS, 2.8 µM in the test with SN12C renal and 3.52 µM with SNB-19 CNS. Further, the TGI is 7.56 µM with HOP-62 NSCLC; 3.58 µM in the test with HOP-92 NSCLC; 8.51 µM in the test on LOX IMVI melanoma; 10.5 µM in the test with M14 melanoma; 8.83 µM in the test on MOLT-4 leukemia; 14.4 µM in the test with NCI-H226 lung. The TGI in the test with RXF 393 renal came out at 8.04 µM; with SF-539 CNS, 13.8 µM; in the test with SN12C renal it was 10.7 µM; in the test with SNB-19 CNS, 15 µM.

As for `COc1cnc2cc(C(=O)O)c3ccccc3c2c1`, the TGI in the test on HOP-62 NSCLC, with HOP-92 NSCLC, in the test on LOX IMVI melanoma, in the test with M14 melanoma, with MOLT-4 leukemia and in the test with NCI-H226 lung was > 100 µM throughout. The TGI with RXF 393 renal, in the test on SF-539 CNS, in the test with SN12C renal and in the test on SNB-19 CNS was > 100 µM in each case.

Turning to `O=S(=O)(c1ccc(O)c(C=Nc2ccc(Cl)cc2)c1)c1ccc(O)c(C=Nc2ccc(Cl)cc2)c1`, the TGI in the test on HOP-62 NSCLC, in the test on HOP-92 NSCLC, in the test on LOX IMVI melanoma, in the test with M14 melanoma, with MOLT-4 leukemia and with NCI-H226 lung was > 100 µM each time. Further, the TGI in the test with RXF 393 renal, with SF-539 CNS, in the test with SN12C renal and in the test on SNB-19 CNS was > 100 µM each time.

The values above are taken from PubChem BioAssay (NCI).
